# Results taken from PMC9400856 (Molecular Informatics, 2022).
# Molecular target: mouse β3-adrenergic receptor (mβ3-AR) (Mus musculus, UniProt P25962)
# Assay: cAMP accumulation
# Format: cell-based
# mouse β3-adrenergic receptor (mβ3-AR), sequence (P25962 whole entry): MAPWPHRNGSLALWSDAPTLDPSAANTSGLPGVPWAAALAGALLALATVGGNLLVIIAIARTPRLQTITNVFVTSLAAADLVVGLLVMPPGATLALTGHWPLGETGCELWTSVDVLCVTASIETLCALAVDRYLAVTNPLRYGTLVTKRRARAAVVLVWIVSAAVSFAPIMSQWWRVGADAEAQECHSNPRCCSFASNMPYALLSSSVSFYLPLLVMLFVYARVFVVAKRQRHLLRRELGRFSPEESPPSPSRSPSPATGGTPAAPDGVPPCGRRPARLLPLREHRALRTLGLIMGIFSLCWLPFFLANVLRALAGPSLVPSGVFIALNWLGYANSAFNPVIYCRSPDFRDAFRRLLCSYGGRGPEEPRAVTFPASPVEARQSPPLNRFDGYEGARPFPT
compound,measurement,value
"C[C@H](Cc1ccc(OCC(=O)O)cc1)NC[C@H](O)c1cccc(Cl)c1 [compound 3, BRL37344]",EC50,0.692 nM
